According to PubChem BioAssay (NCI):
Values joined by “and” are separate entries in the source; they are usually repeats but may differ in a detail not shown here. Identical values can stand only once.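 1) Cells in 96-well plates. 2) Compound, 48 h, 5 concentrations. 3) Linear interpolation between surrounding doses. 4) Unreached endpoint = highest concentration. Abbreviation: GI50, concentration required for 50% inhibition of growth. At the TGI there is no net growth.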

How the values were obtained:
Experiment in all cases: inhibition of tumour cell growth, NCI panel, 48 h
OVCAR-4 ovarian = test system: OVCAR-4 ovarian
HCT-116 colon = test system: HCT-116 colon
SF-268 CNS = test system: SF-268 CNS
MOLT-4 leukemia = test system: MOLT-4 leukemia
MDA-MB-435 = test system: MDA-MB-435
RXF 393 renal = test system: RXF 393 renal
MDA-MB-231 breast = test system: MDA-MB-231 breast
A549 NSCLC = test system: A549 NSCLC
OVCAR-8 ovarian = test system: OVCAR-8 ovarian
TK-10 renal = test system: TK-10 renal

Compound | TGI (OVCAR-4 ovarian) | TGI (HCT-116 colon) | TGI (SF-268 CNS) | TGI (MOLT-4 leukemia) | TGI (MDA-MB-435) | TGI (RXF 393 renal) | TGI (MDA-MB-231 breast) | TGI (A549 NSCLC) | TGI (OVCAR-8 ovarian) | TGI (TK-10 renal) | GI50 (MDA-MB-231 breast)
CCOC(=O)c1ccc(NCC#CCN2CCCCC2)cc1 | > 100 µM | > 100 µM | > 100 µM | > 100 µM | > 100 µM | > 100 µM | > 100 µM | > 100 µM | – | – | –
C=CCc1cccc2cc(C(=O)Nc3ccccn3)c(=N)oc12 | > 100 µM | > 100 µM | > 100 µM | > 100 µM | > 100 µM | > 100 µM | > 100 µM | > 100 µM | > 100 µM | – | –
CC1(C)CCC[C@]2(C)[C@H]3[C@H](C#N)c4cc(O)c(O)cc4O[C@@]3(C)CC[C@@H]12 | > 10 µM | – | > 10 µM | > 10 µM | – | > 10 µM | > 10 µM | – | > 10 µM | > 10 µM | –
COc1ccccc1C(=O)c1c(NCc2ccccc2)c(=O)c1=O | > 100 µM | > 100 µM | > 100 µM | 83.3 µM | > 100 µM | – | > 100 µM | – | > 100 µM | > 100 µM | –
Cc1nc2c(=O)n(C)ncc2[nH]1 | – | > 100 µM | > 100 µM | > 100 µM | > 100 µM | > 100 µM | > 100 µM | > 100 µM | > 100 µM | > 100 µM | –
Cc1ccc2c(c1)-c1nc(N)c(C#N)c(-c3ccccc3)c1CCS2(=O)=O | 41.8 µM | > 100 µM | > 100 µM | – | > 100 µM | – | > 100 µM | > 100 µM | 56.5 µM | 61 µM | –
CC(C)(C)c1cc(O)ccc1O | > 71.5 µM | > 72.9 µM | > 51.1 µM | 27.1 µM | > 71.2 µM | – | 4.97 µM | > 100 µM | > 84.2 µM | 22.2 µM | –
COc1ccc(SCc2cc(OCc3ccccc3)c(OCc3ccccc3)c(OCc3ccccc3)c2)cc1 | 3.25 µM | 3.14 µM | 3.42 µM | 3.3 µM | 3.33 µM | – | 2.7 µM | 3.71 µM | 3.59 µM | 3.32 µM | –
C(=C\c1ccco1)/c1cccc(/C=C/c2ccco2)n1 | > 50 µM | > 50 µM | > 50 µM | > 50 µM | > 50 µM | > 50 µM | – | > 50 µM | > 50 µM | > 50 µM | –
Cc1ccccc1S(=O)(=O)Nn1cnc2ccc(S(=O)(=O)Nc3ccc(Cl)cc3)cc2c1=O | > 100 µM | > 100 µM | > 100 µM | > 100 µM | > 100 µM | – | > 100 µM | > 100 µM | > 100 µM | > 100 µM | –
CCN(CC)C(=O)C(C)n1cc(C)c(=O)[nH]c1=O (stereo not drawn) | > 100 µM | > 100 µM | > 100 µM | > 100 µM | – | > 100 µM | – | > 100 µM | > 100 µM | > 100 µM | –
CC(=O)O[C@H]1[C@H](OC(=O)CC(C)(O)CC(=O)O)C[C@]2(C)C3=C(CCC2C1(C)C)[C@]1(C)CC[C@H]([C@H]2CC[C@H](C(C)(C)O)OC2O)[C@@]1(C)[C@@H](O)C3 (stereo partly drawn) | 37.8 µM | 44.7 µM | – | 40.9 µM | 35.1 µM | – | 32.4 µM | 98 µM | 35.4 µM | 63.4 µM | –
O=C1c2ccc(O)c(O)c2C(=O)c2c(O)ccc(O)c21 | 6.53 µM | 45.2 µM | > 100 µM | 62.2 µM | – | 55.2 µM | – | 50.3 µM | 80.8 µM | > 100 µM | –
CC1=C(C)Cc2c(O)ccc(O)c2C1 | – | 29.5 µM | 31.8 µM | 97.2 µM | 30.5 µM | 30 µM | 44.1 µM | 41.9 µM | 32.1 µM | 36.9 µM | –
C=C1C2C[C@@H]3O[C@H]4C[C@H]5O[C@@]6(C[C@@H]7O[C@]8(C[C@H](C)[C@@H]9O[C@@H]%10CC(CO)O[C@@H]%10C[C@@H]9O8)C[C@H](C)[C@@H]7O6)C[C@H]5O[C@H]4[C@H](C)[C@H]3OC(=O)C[C@H]3CC[C@@H]4OC5[C@H]6O[C@]7(CC[C@H]8CC(=C)[C@H](CC[C@@H](C[C@H]1C)O2)O8)CC6O[C@@H]5[C@@H](O7)[C@H]4O3 (stereo partly drawn) | > 1 µM | – | > 0.874 µM | > 1 µM | < 0.0001 µM | > 1 µM | > 1 µM | 0.408 µM | 0.00513 µM | > 1 µM | –
COC(=O)C1OC(O[C@H]2CC[C@]3(C)[C@H]4CC=C5[C@@H]6CC(C)(C)CC[C@]6(C(=O)OC6OCC(O)C(O)C6OC6OC(C)C(OC7OCC(O)C(O)C7O)C(O)C6O)CC[C@@]5(C)[C@]4(C)CC[C@H]3C2(C)C)C(O)C(O)C1O (stereo partly drawn) | 34.3 µM and 29.8 µM | 33.1 µM and 37.5 µM | 31.2 µM and 34.7 µM | 38.9 µM and 45 µM | 33.8 µM and 32.1 µM | 37 µM and 40.7 µM | 20.1 µM and 12.6 µM | 33 µM and 41 µM | 40.7 µM and 42.8 µM | – | 7.51 µM and 2.75 µM
CCN1CCC(O)(c2ccc(Cl)cc2)C(C(=O)c2ccc(Cl)cc2)C1 (stereo not drawn) | > 100 µM | > 100 µM | > 100 µM | > 100 µM | – | > 100 µM | – | > 100 µM | > 100 µM | > 100 µM | –
OC(c1cc(C23CC4CC(CC(C4)C2)C3)nc2c(Cl)cc(Cl)cc12)C1CCCCN1 (stereo not drawn) | – | 2.7 µM | 3.25 µM | 3.57 µM | – | 3.07 µM | 2.78 µM | 3.08 µM | 3.18 µM | 3.23 µM | –
COc1ccc(-c2cc3[nH]nc(N)c3c(=O)o2)cc1 | > 100 µM | > 100 µM | > 100 µM | > 100 µM | – | > 100 µM | – | > 100 µM | > 100 µM | > 100 µM | –
COCN1C(=O)[C@@H]2CCCN2C(=O)c2cc(N)ccc21 | > 100 µM | > 100 µM | > 100 µM | – | > 100 µM | > 100 µM | > 100 µM | > 100 µM | > 100 µM | > 100 µM | –
CC(=O)Nc1c(C)cc2c(nc3n2CCC3O)c1[N+](=O)[O-] (stereo not drawn) | > 100 µM | > 100 µM | > 100 µM | > 100 µM | > 100 µM | – | > 100 µM | > 100 µM | > 100 µM | – | –
